From patent US12543736B2, “Herbicidal compositions comprising mesotrione” (BASF SE, priority 2024, dated 2026)

What was measured:
[1] = test system: Zea mays; experiment: Example 4 post-emergence application A-1, B and C-19, ZEAMX; type: in vivo; settings: growth stage 12, 21 DAT, g ai/ha: A-1 2, B 50, C-19 30
Method: (§1) In the examples below, using the method of S. R. Colby (1967) “Calculating synergistic and antagonistic responses of herbicide combinations”, Weeds 15, p. 22ff., the value E, which is expected if the activity of the individual active compounds is only additive, was calculated:
(§2) [formula] • where • X=percent activity using active herbicide A at an application rate a; • Y=percent activity using active herbicide B (e.g. mesotrione) at an application rate b; • E=expected activity (in %) by A+B at application rates a+b.
(§3) If the value found experimentally is higher than the value E calculated according to Colby, a synergistic effect is present.
(§4) Evaluation was carried out using a scale from 0 to 100. 100 means no emergence of the plants, or complete destruction of at least the above-ground parts, and 0 means no damage or normal course of growth. A good herbicidal activity is given at values of at least 70, and very good herbicidal activity is given at values of at least 85.
(§5) Post-Emergence Application of Herbicide A-1 (A-1), Mesotrione (B) and Pyroxasulfone (C-19)
(§6) Herbicide A-1 (342 g/l), mesotrione (100 g/l) and pyroxasulfone (500 g/l) were, together with addition of 0.5 v/v % MSO (methylated sed oil) as adjuvant, formulated in water as distribution medium (water volume 200 l/ha) and sprayed with commercial flat fan nozzles.

[2] = test system: Commelina benghalensis; experiment: Example 4 post-emergence application A-1, B and C-19, COMBE; type: in vivo; settings: growth stage 13, 21 DAT, g ai/ha: A-1 1, B 50, C-19 30
Method: as §1, §2, §3, §4, §5, §6

## Cn1nc(C(F)(F)F)c(CS(=O)(=O)C2=NOC(C)(C)C2)c1OC(F)F [C-19, pyroxasulfone]
[1]
  % herbicidal activity: 0%
[2]
  % herbicidal activity: 15%
